Paper PMC2346451 (PLoS ONE, 2008)

Key:
[1] = biological target: rat TRPA1 (rTRPA1) (Rattus norvegicus, UniProt Q6RI86); test: Whole-cell patch clamp of rat TRPA1 expressed in HEK-293T cells; assay type: cell-based
Experimental: Transformed human embryonic kidney-293 (HEK-293T) cells were grown in Dulbecco's modified Eagle's medium (DMEM)+F-12 supplemented with 10% fetal calf serum, and 1% penicillin/streptomycin in 5% CO2 at 37°C. Cells grown to 90% confluence in 35 mm Petri dishes were transiently transfected with plasmid DNA encoding a TRP channel construct (1 µg). Rat TRPV1 (rTRPV1) was cloned into an enhanced green fluorescent protein-containing vector (pTracer-CMV2; Invitrogen, Carlsbad, CA). Chicken TRPV1 (cTRPV1), the chicken rat TRPV1 chimera (crcTRPV1), rat TRPV2 (rTRPV2), mouse TRPV3 (mTRPV3), mouse TRPV4 (mTRPV4), rat TRPM8 (rTRPM8), and rat TRPA1 (rTRPA1), were cloned into pcDNA3 and co-transfected with enhanced green fluorescent protein (0.1 µg) to follow expression. The cTRPV1 and crcTRPV1 clones were kindly provided by Dr. David Julius. Recordings were carried out 24–36 hours after transfection. Cells were split via trypsin EDTA, plated on glass coverslips at 5–10% confluence, and used 2–3 hours later.
Electrophysiological experiments were performed using the whole-cell patch-clamp technique at room temperature. Modified Ringer's solution with low chloride and nominal calcium contained (in mM): 130 sodium hydroxide, 5 potassium chloride, 1 magnesium chloride, 10 sodium 4-(2-hydroxyethyl)-1-piperazineethanesulfonic acid, 10 2-(N-morpholino)ethanesulfonic acid, and 20 glucose (pH 7.4; 310 milli-osmolar). […] 2 mM calcium chloride was included in the external solution where noted. To activate TRPV1, the modified Ringer's solution was made at pH 5 (low pH solution) and the chloride concentration was kept to a minimum to prevent contamination of the TRPV1 currents with acid-activated chloride currents. For recordings from heterologously expressing cells, the internal pipette solution contained (in mM): 125 cesium-Methanesulfonate, 10 cesium (1.2-bis(o-aminophenoxy)ethane-N,N,N',N'-tetraacetic acid, 8 sodium chloride, 4 magnesium adenosine triphosphate, and 10 HEPES (pH 7.2; 290 mOSM; nominal free calcium concentrations). For TRPA1 and dorsal root ganglion recordings, the internal pipette solution contained (in mM): 110 cesium-Methanesulfonate, 0.5 cesium4BAPTA, 8 sodium chloride, 0.2 calcium chloride, 4 magnesium-ATP, 4 sodium-GTP, and 10 4-(2-hydroxyethyl)-1-piperazineethanesulfonic acid (pH 7.2; 290 mOSM; 100 nM free calcium internal). MaxChelator was used to calculate the free calcium concentration (http://www.stanford.edu/cpatton/maxc.html).
Recordings were obtained using an Axopatch 200B amplifier, Digidata 1322A analog-to-digital converter, and pClamp 8.01 software (Molecular Devices, Union City, CA). Data were low-pass filtered at 2 kHz and digitized at 5 kHz. Borosilicate glass pipettes (World Precision Instruments, Sarasota, FL) were typically 3 MΩ pipette resistance after fire polishing. Cell capacitance was measured for each cell, and access resistance compensated to ∼80%. Recordings were begun ∼5 minutes after initial rupture to ensure initial steady state conditions. Current-voltage (I-V) relations were obtained using a ramp protocol. Voltage ramps (400 ms) from −100 to +40 or +100 mV were applied every 1–2 seconds and the holding potential was either −70 mV or 0 mV (see Figure Legends). A 40 ms step was added at the beginning and end of the ramp (i.e. at −100 mV, +40 mV or +100 mV). Liquid junction potentials were not corrected.
The dose response curves were fit with the Hill equation, where [drawing 8] and [A] is the concentration of agonist or blocker, N is the Hill coefficient, and KD is the [A] for Imeasured/Imax = 0.5. The term apparent dissociation constant is used in place of the half concentration of excitation and inhibition. […] Averaged data are presented as mean±standard error (S.E.) throughout. Statistical analysis included paired and unpaired Student's t-test comparisons of the data; p values are reported in the text.

[2] = tested on: dorsal root ganglion neurons; test: Fura-2 calcium imaging of dorsal root ganglion neurons; assay type: cell-based, rat; conditions: 1 mM citral; freshly isolated neurons
From the text: Dorsal root ganglion neurons from all spinal levels were removed from postnatal day 12 to 20 Sprague Dawley rats and the nerve roots trimmed. Calcium- and magnesium-free (CMF) Hank's solution contained (in mM): 136.9 sodium chloride, 5.4 potassium chloride, 0.34 dibasic sodium orthophosphate, 0.44 monopotassium phosphate, 5.6 glucose, 5 4-(2-hydroxyethyl)-1-piperazineethanesulfonic acid, 0.005% phenol red, pH 7.4. CMF Hank's was used throughout the isolation and enzymatic treatments. The isolated ganglia were treated for 20 minutes at 37°C with 20 U/ml of papain (Worthington Biochemical, Lakewood, NJ) and 5 mM cysteine. The ganglia were then transferred to CMF Hank's with 3 mg/ml collagenase (type I; Worthington) and 4 mg/ml dispase (neutral type II; Roche Applied Science, Indianapolis, IN) for 20 minutes at 37°C. […]
Dorsal root ganglion neurons were loaded with 5 µM fura-2 AM and 0.02% pluronic acid in media at 37°C for 60 minutes. […] The MetaFluor imaging system (Universal Imaging Corporation) was used to record fluorescence at 340 and 380 nm excitation wavelengths. Background fluorescence, measured as the ratio 340/380 in a “cell-free” zone during the experiment, was subtracted from the data. […]

rat TRPA1 (rTRPA1), sequence (Q6RI86 whole entry): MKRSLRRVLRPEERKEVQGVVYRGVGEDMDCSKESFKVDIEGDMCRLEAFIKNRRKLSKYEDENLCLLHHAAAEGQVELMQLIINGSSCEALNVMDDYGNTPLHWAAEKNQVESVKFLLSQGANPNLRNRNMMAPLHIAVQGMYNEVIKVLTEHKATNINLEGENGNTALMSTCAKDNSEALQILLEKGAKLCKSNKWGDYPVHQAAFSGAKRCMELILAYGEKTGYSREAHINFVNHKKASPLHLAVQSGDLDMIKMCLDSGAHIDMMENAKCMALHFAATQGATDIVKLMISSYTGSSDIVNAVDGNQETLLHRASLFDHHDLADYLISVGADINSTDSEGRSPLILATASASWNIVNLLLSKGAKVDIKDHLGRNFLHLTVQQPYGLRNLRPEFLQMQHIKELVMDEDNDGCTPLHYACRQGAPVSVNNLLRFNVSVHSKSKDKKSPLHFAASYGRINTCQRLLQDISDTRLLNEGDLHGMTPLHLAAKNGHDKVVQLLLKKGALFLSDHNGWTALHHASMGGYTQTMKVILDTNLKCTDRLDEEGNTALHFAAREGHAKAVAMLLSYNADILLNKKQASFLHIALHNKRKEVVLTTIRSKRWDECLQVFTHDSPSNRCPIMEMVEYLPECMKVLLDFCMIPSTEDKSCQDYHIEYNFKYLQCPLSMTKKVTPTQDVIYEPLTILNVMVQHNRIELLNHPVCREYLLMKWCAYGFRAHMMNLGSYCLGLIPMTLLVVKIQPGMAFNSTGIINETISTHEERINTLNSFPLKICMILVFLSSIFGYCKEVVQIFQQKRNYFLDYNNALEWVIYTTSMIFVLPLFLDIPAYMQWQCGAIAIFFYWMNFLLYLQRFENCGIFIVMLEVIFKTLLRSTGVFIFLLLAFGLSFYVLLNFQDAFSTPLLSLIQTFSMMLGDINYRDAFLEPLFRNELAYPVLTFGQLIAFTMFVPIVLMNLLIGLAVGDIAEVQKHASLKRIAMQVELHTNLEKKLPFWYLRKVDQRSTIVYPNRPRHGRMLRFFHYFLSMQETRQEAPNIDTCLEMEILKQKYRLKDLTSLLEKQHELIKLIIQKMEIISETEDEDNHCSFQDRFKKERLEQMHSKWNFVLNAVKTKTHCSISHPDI

Q: For CC(C)=CCCC(C)=CC=O [citral, 3,7-dimethyl-2,6-octadienal], which “Reversibility of citral inhibition of agonist-evoked current” value ([1]; allyl isothiocyanate-evoked) is on record?
A: rapidly reversed

Q: What about the “Effect of citral addition on agonist-induced current” value ([1]; allyl isothiocyanate-induced, n = 10) of the same molecule?
A: not increased

Q: And the “TRPA1 current activation by allyl isothiocyanate recovered after citral washout” value ([1]; at 30s, n = 5)?
A: 60±16%

Q: And the Activation threshold ([1]; citral activation, bell-shaped dose response, 2 mM external calcium)?
A: threshold ∼200 µM

Q: And the “Hill coefficient (inhibition)” value ([1]; citral block of allyl isothiocyanate-evoked current)?
A: 1.0

Q: And the “Agonist efficacy IAITC (300 µM)/Icitral (300 µM)” value ([1]; fold larger, −100 mV, n = 27 and 9)?
A: IAITC (300 µM)/Icitral (300 µM) 1.5 fold larger (n = 27 and 9; −100 mV)

Q: And the Kd ([1]; read-out: Inhibition KD, app)?
A: 254 µM

Q: What about the “Increase of ITRPA1 above baseline” value ([1]; −100 mV) of the same molecule?
A: 3.1±0.8 fold

Q: What about the “Neurons with increased internal calcium concentration among capsaicin-responsive neurons” value [2] of the same molecule?
A: 12 of 35
